Assay results as given in patent US11021628B2, “Coating composition containing methyl cellulose, method for producing the same, and solid preparation” (Shin-Etsu Chemical Co., Ltd., priority 2016, dated 2021).

Assay: Dissolution Test, Paddle method, Japanese Pharmacopoeia Sixteenth Edition
Type: physicochemical
Settings: acetaminophen, water, paddle 100 rpm
Method: The coated granules was subjected to the dissolution test in accordance with Dissolution Test, Paddle method in the Japanese Pharmacopoeia Sixteenth Edition at a paddle rotation rate of 100 rpm with water as the test liquid, and the drug concentration was quantitatively determined at a measurement wavelength of 244 nm by using an ultraviolet spectrophotometer (UV-1700, manufactured by Shimadzu Corporation).
As Reference Example 1, the dissolution rates of an acetaminophen powder after 1 minute and 10 minutes are also shown in Table 3.

Structure (SMILES): CC(=O)Nc1ccc(O)cc1 [Ref. Ex. 1, acetaminophen]
- dissolution ratio after 1 minute (1 minute): 48.0%
- dissolution ratio after 10 minutes (10 minutes): 99.6%
